Laboratory results reported in PubChem BioAssay AID2202554 (NIEHS Division of Translational Toxicology (DTT)).
Inconclusive results are not listed. Active and inactive are the calls of the source. The rule behind the calls is not given here.

What follows are compounds tested on S. typhimurium/E. coli reverse mutation, colony counts (assay: Bacterial reverse mutation test (aka Ames test) summary data;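 note: His-minus Salmonella and trp-minus E. coli WP2 uvrA pKM101 with or without liver S9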).
From the text: The Ames test uses bacteria cultures to determine whether a substance causes mutations. Because there is a significant overlap between substances that are mutagens and those that are carcinogens, a quick and inexpensive mutagenicity test is useful as an initial screening for possible carcinogens.
The Ames test relies on specific strains of S. typhimurium, namely: TA97, TA98, TA100, TA102, TA104, TA1535, TA1537, and TA1538. In addition to the S. typhimurium strains, the test may also use the E. coli strain WP2 uvrA pKM101.
Each of the bacterial strains has a mutation that prevents it from making an amino acid (a protein building block) required for normal cell growth. The S. typhimurium strains are unable to manufacture histidine; the E. coli strain cannot manufacture tryptophan. The tester strains will not be able to grow without amino acid supplementation, unless the mutated gene is changed back to the correct DNA sequence (reversion mutation). Being exposed to a mutagenic chemical increases the chance that the mutant gene will be restored to the correct sequence, which allows the bacteria to grow and form colonies. Each substance under study is tested in a variety of bacterial strains with different types of altered DNA sequences in order to provide a comprehensive assessment of the mutagenic potential of the substance.
Some non-mutagenic substances are converted to mutagenic substances when metabolized by the liver; in contrast, some substances that are mutagenic in their natural state are converted to non-mutagens by the liver. All substances are tested in their natural state, as well as in the presence of liver enzymes that can produce this metabolic conversion of the test substance. Extracts of rat, hamster, or mouse liver enzymes (S9 mix) are used for this purpose.
D. Preparing the Cultures
Multiple sets of cultures are prepared using a range of doses and different amounts of liver enzymes for each bacterial strain. Each culture is prepared in a test tube containing a suspension of one bacterial strain and either an S9 mix or plain buffer solution. Then the test substance is added. Negative control cultures are established using the same ingredients, but without the test substance. Positive control cultures are established using known mutagens active in particular bacterial strains and metabolic conditions (for example, with or without S9). Once prepared, each culture is incubated for 20 minutes at 37° C. Agar is then added to the cultures, and the contents of each tube are poured onto the surface of a Petri dish that was prepared with standard bacterial culture medium. The plates are then incubated, usually for two days.
Depending on the substance to be tested, the exposure and incubation processes may be modified. These variations include:
- Elimination of the 20-minute incubation period in a test tube prior to plating (this method is referred to as the standard plate incorporation method)
- Enzymatic reduction of azo and diazo substances (this process occurs in the intestine or liver of animals) using a chemical called flavin mononucleotide (FMN) or intestinal bacterial preparations from rats
- Testing in sealed chambers such as desiccators for volatile and gaseous chemicals.
To validate the test, a trained investigator compares the number of colonies on the chemical-treated plates to the number of colonies on the negative control plates. If the substance under test is mutagenic, the chemical-treated plates will have a much greater number of colonies than the negative control plates.
- A positive response is a reproducible, dose-related increase in mutant colonies in any single strain, with or without the addition of S9 metabolic enzymes. While there is no minimum percentage of increase required for a result to be considered positive, a twofold increase in mutant colonies in a treated plate is usually considered to be a positive (mutagenic) response.
[…]
With CC(N)=O the outcome was “inactive; negative”. In the case of CC(=O)Nc1ccc(C(=O)CCl)cc1, the outcome is reported as “active; positive”. Cc1ccc(N)cc1Cl was tested, and the outcome was “active; weakly positive”. For FC(Cl)(Cl)Cl, the outcome was “inactive; negative”. CCCCCCCC/C=C\CCCCCCCC(=O)O (tested in a mixture with another compound) was tested, and the outcome was “inactive; negative”. For c1ccc2sc(SSc3nc4ccccc4s3)nc2c1, the outcome was “active; positive”. CCc1ccc(C(c2ccc(CC)cc2)C(Cl)Cl)cc1 was tested, and the outcome was “active; positive”. With Cc1nnc(NS(=O)(=O)c2ccc(N)cc2)s1 the outcome was “inactive; negative”. For O=C1O[C@H](CO)[C@@H](O)[C@H](O)[C@H]1O, the outcome was “inactive; negative”. In the case of CCCCNCCCC, the outcome is reported as “inactive; negative”. CCOc1ccc2nc(N)sc2c1 was tested, and the outcome was “active; positive”. With COc1ccc(C=O)cc1 the outcome was “inactive; negative”. With O=[N+]([O-])c1ccccc1O the outcome was “inactive; negative”. In the case of Cc1cnc[nH]1, the outcome is reported as “inactive; negative”. With NCc1ccc(CN)cc1 the outcome was “inactive; negative”. For CC(CN1c2ccccc2Sc2ccccc21)N(C)C (centres undefined), the outcome was “inactive; negative”. For Cn1cnc([N+](=O)[O-])c1Sc1ncnc2nc[nH]c12, the outcome was “active; positive”. O=[N+]([O-])c1cc(Cl)c(Cl)c(Cl)c1 was tested, and the outcome was “active; positive”. CC(C)[N+](C)(CCOC(=O)C1c2ccccc2Oc2ccccc21)C(C)C was tested, and the outcome was “inactive; negative”. With Nc1c(Br)cc([N+](=O)[O-])cc1[N+](=O)[O-] the outcome was “active; positive”. For CN(C)c1nc(N(C)C)nc(N(C)C)n1, the outcome was “inactive; negative”. CCOC(=O)CC(C)O (centres undefined) was tested, and the outcome was “inactive; negative”. With O=CNc1nc(-c2ccc([N+](=O)[O-])o2)cs1 the outcome was “active; positive”. O=C1OC2(c3ccc(O)cc3Oc3cc(O)ccc32)c2ccccc21 was tested, and the outcome was “inactive; negative”. CCOc1cc(C=O)ccc1O was tested, and the outcome was “inactive; negative”. CC(=O)c1ccc(S(=O)(=O)NC(=O)NC2CCCCC2)cc1 was tested, and the outcome was “inactive; negative”. In the case of CC1=CC(=C(c2ccc(N)cc2)c2ccc(N)cc2)C=CC1=N, the outcome is reported as “active; positive”. In the case of CCCCCCc1ccc(O)cc1O, the outcome is reported as “inactive; negative”. In the case of C=C[C@H]1CN2CC[C@H]1C[C@@H]2[C@@H](O)c1ccnc2ccc(OC)cc12, the outcome is reported as “inactive; negative”. With CC/C(=C(/CC)c1ccc(O)cc1)c1ccc(O)cc1 the outcome was “inactive; negative”. CCCCCCCCS(=O)C(C)Cc1ccc2c(c1)OCO2 (centres undefined) was tested, and the outcome was “inactive; negative”. For C=CBr, the outcome was “active; positive”. With C=C(C)C the outcome was “inactive; negative”. With COC=O the outcome was “inactive; negative”. O=[N+]([O-])c1cc([N+](=O)[O-])c2ccc(S(=O)(=O)O)cc2c1O was tested, and the outcome was “active; positive”. In the case of Oc1cccc2cc3cccc(O)c3c(O)c12, the outcome is reported as “inactive; negative”. With c1ccc2cc3c(cc2c1)-c1cccc2cccc-3c12 the outcome was “active; positive”. In the case of CCNc1cccc(O)c1, the outcome is reported as “active; positive”. C=CC(=O)OCCOCCOC(=O)C=C was tested, and the outcome was “inactive; negative”. In the case of COC(=O)C(c1ccccc1)C1CCCCN1 (centres undefined), the outcome is reported as “inactive; negative”. In the case of CC(C)CC(C)N (centres undefined), the outcome is reported as “inactive; negative”. For COc1ccc(CCC(=O)c2c(O)cc(O[C@@H]3O[C@H](CO)[C@@H](O)[C@H](O)[C@H]3O[C@@H]3O[C@@H](C)[C@H](O)[C@@H](O)[C@H]3O)cc2O)cc1O, the outcome was “inactive; negative”. NC(=S)NNC(N)=S was tested, and the outcome was “inactive; negative”. In the case of IC(I)I, the outcome is reported as “active; positive”. C=CCc1cc(OC)c2c(c1)OCO2 was tested, and the outcome was “inactive; negative”. For COP(=O)(O)OC, the outcome was “inactive; negative”. Oc1cccc(Nc2ccccc2)c1 was tested, and the outcome was “inactive; negative”. O=c1[nH]c(=O)n(Cl)c(=O)n1Cl was tested, and the outcome was “inactive; negative”. In the case of CN1CSC(=S)N(C)C1, the outcome is reported as “active; weakly positive”. In the case of CNc1ccc(N(CCO)CCO)cc1[N+](=O)[O-], the outcome is reported as “active; positive”. For Cc1ccc(N=C=O)cc1N=C=O, the outcome was “active; positive”. For COc1ccc(N)cc1, the outcome was “active; positive”. With CC(O)CN(CC(C)O)CC(C)O (centres undefined) the outcome was “inactive; negative”. With O=C1OC(=O)c2c(Br)c(Br)c(Br)c(Br)c21 the outcome was “inactive; negative”. For CCCCOC(=O)c1ccc(N)cc1, the outcome was “inactive; negative”. For CCOC(C)OCC, the outcome was “active; positive”. In the case of CC(=O)/C=C/c1ccccc1, the outcome is reported as “active; positive”. In the case of CC(C)(COCC1CO1)COCC1CO1 (centres undefined), the outcome is reported as “active; positive”. With C=CCOC(=O)CCCCCCCC the outcome was “inactive; negative”. For OCCN(CCO)CCO, the outcome was “inactive; negative”. For Nc1cc(S(=O)(=O)[O-])cc2cc(S(=O)(=O)[O-])c(N=Nc3ccc(-c4ccc(N=Nc5c(S(=O)(=O)[O-])cc6cc(S(=O)(=O)[O-])cc(N)c6c5[O-])c([O-])c4)cc3[O-])c([O-])c12.[Cu+2].[Cu+2].[Na+].[Na+].[Na+].[Na+], the outcome was “inactive; negative”. With Clc1cccc(C(Cl)(Cl)Cl)n1 the outcome was “active; positive”. CCN was tested, and the outcome was “inactive; negative”. With C[C@H](Cn1cnc2c(N)ncnc21)OCP(=O)(O)O the outcome was “active; positive”. For Clc1ccc(C(c2ccc(Cl)cc2)c2ccc(Cl)cc2)cc1, the outcome was “inactive; negative”. With Nc1ccc(Nc2ccccc2)cc1 the outcome was “inactive; negative”. For c1ccc2cc3ccccc3cc2c1, the outcome was “active; weakly positive”. In the case of CNc1ccccc1N, the outcome is reported as “active; positive”. For CCCCCCC=O, the outcome was “inactive; negative”. CCCCC(CC)COCC1CO1 (centres undefined) was tested, and the outcome was “active; positive”. For O=[N+]([O-])c1ccc(CCO)cc1, the outcome was “active; positive”. In the case of CCCCNC(=O)NS(=O)(=O)c1ccc(C)cc1, the outcome is reported as “inactive; negative”. In the case of Oc1ccc([C@H]2COc3cc(O)ccc3C2)cc1, the outcome is reported as “inactive; negative”. For ClCCOCOCCCl, the outcome was “active; positive”. COc1ccc2nc(N)sc2c1 was tested, and the outcome was “active; positive”. For C=CCNCC=C, the outcome was “inactive; negative”. In the case of NC(=O)c1ccccc1[N+](=O)[O-], the outcome is reported as “active; positive”. For Cc1cccnc1, the outcome was “inactive; negative”. NC(N)=NC(=O)c1nc(Cl)c(N)nc1N was tested, and the outcome was “active; positive”. In the case of CC(C)CC(=O)CC(C)C, the outcome is reported as “inactive; negative”. With CCCCC the outcome was “inactive; negative”. For O[C@H]([C@H](O)[C@@H](O)CBr)[C@H](O)CBr, the outcome was “active; positive”. In the case of CCCCCCCCCCCCCOC(=O)c1ccccc1C(=O)OCCCCCCCCCCCCC, the outcome is reported as “inactive; negative”. In the case of C=CC(=O)OCCCCCCOC(=O)C=C, the outcome is reported as “inactive; negative”. CC[Si](Cl)(Cl)CC was tested, and the outcome was “inactive; negative”. For OCCOCCOCCO, the outcome was “active; positive”. With N[C@@H](Cc1c[nH]c2ccccc12)C(=O)O the outcome was “inactive; negative”. O=C1CN(N=Cc2ccc([N+](=O)[O-])o2)C(=O)N1 was tested, and the outcome was “active; positive”. For OCC(Br)CBr (centres undefined), the outcome was “active; positive”. NCCNCCN was tested, and the outcome was “inactive; negative”. For C=CCCC, the outcome was “inactive; negative”. In the case of COc1ccc(N)c(C)c1, the outcome is reported as “active; positive”. In the case of O=C(/C=C/C=C/c1ccc2c(c1)OCO2)N1CCCCC1, the outcome is reported as “inactive; negative”. For O.O.O.O.O.O.O.O=S(=O)([O-])[O-].[Co+2], the outcome was “active; weakly positive”. For C=C(C)C(=O)OC(C)C, the outcome was “inactive; negative”. For Clc1cccc(Cl)c1, the outcome was “inactive; negative”. In the case of COc1cc2c(cc1OC)[C@@]13CCN4CC5=CCO[C@H]6CC(=O)N2[C@H]1[C@H]6[C@H]5C[C@H]43, the outcome is reported as “inactive; negative”. With OCCO the outcome was “inactive; negative”. For NNC(N)=S, the outcome was “inactive; negative”. CNc1ccc2nc3ccc(=[N+](C)C)cc-3sc2c1 was tested, and the outcome was “active; positive”. CC(=O)C(C)O (centres undefined) was tested, and the outcome was “inactive; negative”. In the case of C=CC1CC=CCC1 (centres undefined), the outcome is reported as “inactive; negative”. O=C=Nc1ccc(N=C=O)cc1 was tested, and the outcome was “inactive; negative”. C=CCNC(=S)NCC=C was tested, and the outcome was “inactive; negative”.
